Source: article PMC10388696 (Clinical cancer research : an official journal of the …, 2023)

Legend:
[1] = QT interval corrected with Fridericia's method; type: in vivo, human; settings: any dose level (data not shown)
[2] = system: PI3K-γ; settings: cited from earlier work
[3] = across preclinical species; cited from earlier work
[4] = Safety: treatment-related AEs and DLTs; type: in vivo
[5] = system: multiple syngeneic models; settings: in vivo; cited from earlier work
[6] = system: cancer cell proliferation; settings: in vitro; cited from earlier work
[7] = system: T-cell activation; settings: in vitro; cited from earlier work
[8] = Clinical plasma pharmacokinetics; settings: human, in vivo
[9] = system: advanced solid tumors; assay: Tumor response by RECIST 1.1; type: in vivo, human; settings: monotherapy Part A, 20 mg, one patient with peritoneal mesothelioma

## C[C@H](NC(=O)c1c(N)nn2cccnc12)c1cc2cccc(C#Cc3cnn(C)c3)c2c(=O)n1-c1ccccc1 [Eganelisib]
[1]
  effects on QTcF: No clinically relevant effects
[2]
  IC50: […]
[3]
  oral bioavailability: ≥ 31%
[4]; human, in vivo
  patients who discontinued for a treatment-related AE: 8%
[4]; monotherapy
  grade 5 treatment-related AEs: […]
[4]; monotherapy, 10–60 mg QD
  MTD: no dose of eganelisib monotherapy met MTD criteria
[5]
  tumor growth in syngeneic models: tumor growth delay
[6]
  direct effect on cancer cell proliferation: […]
[7]
  direct effect on T-cell activation: […]
[8]; 10 mg, terminal t1/2
  half-life: […]
[8]; 10 mg, terminal t1/2, geometric mean
  half-life: […]
[8]; 60 mg
  dose proportionality of exposure (Cmax and AUC): approximately dose proportional
[8]; effective t1/2 calculated from the AR estimate
  half-life: […]
[8]; po
  Tmax: […]
[8]; t1/2
  half-life: […]
[9]
  duration of response (PR): […]
